Measurements taken from US20240043427A1 (Gilead Sciences, Inc., priority 2020, published 2024).

Target: CD73 (Homo sapiens (Human), UniProt P21589)
Assay type: biochemical
Conditions: 1 mM NaH2PO4 in enzyme buffer, CD73 0.3 nM, AMP 15 uM

Chain of CD73 (P21589 27-574): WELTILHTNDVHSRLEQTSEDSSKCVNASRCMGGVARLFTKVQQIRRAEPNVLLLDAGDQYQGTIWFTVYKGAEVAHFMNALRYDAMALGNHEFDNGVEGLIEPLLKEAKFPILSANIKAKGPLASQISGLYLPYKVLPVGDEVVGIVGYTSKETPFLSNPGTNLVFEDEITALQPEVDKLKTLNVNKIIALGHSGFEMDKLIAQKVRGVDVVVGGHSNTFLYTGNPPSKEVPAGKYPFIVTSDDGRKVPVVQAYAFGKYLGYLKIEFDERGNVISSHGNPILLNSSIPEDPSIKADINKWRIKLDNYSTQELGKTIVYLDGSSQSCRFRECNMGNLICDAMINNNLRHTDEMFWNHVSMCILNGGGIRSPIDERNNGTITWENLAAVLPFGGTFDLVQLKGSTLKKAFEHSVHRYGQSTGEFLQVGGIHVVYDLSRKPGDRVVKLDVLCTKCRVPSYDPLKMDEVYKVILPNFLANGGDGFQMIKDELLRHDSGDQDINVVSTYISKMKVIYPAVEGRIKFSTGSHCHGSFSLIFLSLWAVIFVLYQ

| Structure (SMILES) | IC50 |
| --- | --- |
| O=c1[nH]cc(-c2cc([C@H]3C[C@@H]3c3ccc4ncsc4c3)c3nc(C4CC4)cn3n2)c(=O)[nH]1 (racemic) [Example 143, 5-(8-((1S,2S)-2-(benzo[d]thiazol-6-yl)cyclopropyl)-2-cyclopropylimidazo[1,2-b]pyridazin-6-yl)pyrimidine-2,4(1H,3H)-dione] | 5.69 nM |
| O=c1[nH]cc(-c2cc([C@H]3C[C@@H]3c3ccnc(C(F)(F)F)c3)c3nccn3n2)c(=O)[nH]1 (racemic) [Example 160, 5-(8-((1S,2S)-2-(2-(trifluoromethyl)pyridin-4-yl)cyclopropyl)imidazo[1,2-b]pyridazin-6-yl)pyrimidine-2,4(1H,3H)-dione] | 15.4 nM |
| O=c1[nH]cc(-c2cc([C@H]3C[C@@H]3c3ccncc3F)c3nccn3n2)c(=O)[nH]1 (racemic) [Example 161, 5-(8-((1S,2S)-2-(3-fluoropyridin-4-yl)cyclopropyl)imidazo[1,2-b]pyridazin-6-yl)pyrimidine-2,4(1H,3H)-dione] | 4.48 nM |
| O=c1[nH]cc(-c2cc([C@H]3C[C@@H]3c3cnc4ccccc4c3)c3nccn3n2)c(=O)[nH]1 (racemic) [Example 163, 5-(8-((1S,2S)-2-(quinolin-3-yl)cyclopropyl)imidazo[1,2-b]pyridazin-6-yl)pyrimidine-2,4(1H,3H)-dione] | 2.13 nM |
| O=c1[nH]cc(-c2cc([C@H]3C[C@@H]3c3cncc(F)c3)c3nccn3n2)c(=O)[nH]1 (racemic) [Example 164, 5-(8-((1S,2S)-2-(5-fluoropyridin-3-yl)cyclopropyl)imidazo[1,2-b]pyridazin-6-yl)pyrimidine-2,4(1H,3H)-dione] | 3.58 nM |
| O=c1[nH]cc(-c2cc([C@H]3C[C@@H]3c3ccc(C(F)(F)F)cc3F)c3nccn3n2)c(=O)[nH]1 (racemic) [Example 165, 5-(8-((1S,2S)-2-(2-fluoro-4-(trifluoromethyl)phenyl)cyclopropyl)imidazo[1,2-b]pyridazin-6-yl)pyrimidine-2,4(1H,3H)-dione] | 5.06 nM |
| O=c1[nH]cc(-c2cc([C@H]3C[C@@H]3c3cccc4ccncc34)c3nccn3n2)c(=O)[nH]1 (racemic) [Example 166, 5-(8-((1S,2S)-2-(isoquinolin-8-yl)cyclopropyl)imidazo[1,2-b]pyridazin-6-yl)pyrimidine-2,4(1H,3H)-dione] | 43 nM |
| O=c1[nH]cc(-c2cc([C@H]3C[C@@H]3c3ccnc4ccccc34)c3nccn3n2)c(=O)[nH]1 (racemic) [Example 167, 5-(8-((1S,2S)-2-(quinolin-4-yl)cyclopropyl)imidazo[1,2-b]pyridazin-6-yl)pyrimidine-2,4(1H,3H)-dione] | 33 nM |
| O=c1[nH]cc(-c2cc([C@H]3C[C@@H]3c3cccc4cnccc34)c3nccn3n2)c(=O)[nH]1 (racemic) [Example 168, 5-(8-((1S,2S)-2-(isoquinolin-5-yl)cyclopropyl)imidazo[1,2-b]pyridazin-6-yl)pyrimidine-2,4(1H,3H)-dione] | 72.5 nM |
| CCOC(=O)c1cn2nc(-c3c[nH]c(=O)[nH]c3=O)cc([C@H]3C[C@@H]3c3ccc(F)cc3)c2n1 (racemic) [Example 172, ethyl 6-(2,4-dioxo-1,2,3,4-tetrahydropyrimidin-5-yl)-8-((1S,2S)-2-(4-fluorophenyl)cyclopropyl)imidazo[1,2-b]pyridazine-2-carboxylate] | 13.9 nM |
| O=c1[nH]cc(-c2cc([C@H]3C[C@@H]3c3ccccn3)c3ncc(F)n3n2)c(=O)[nH]1 (racemic) [Example 178, 5-(3-fluoro-8-((1S,2S)-2-(pyridin-2-yl)cyclopropyl)imidazo[1,2-b]pyridazin-6-yl)pyrimidine-2,4(1H,3H)-dione] | 2.65 nM |
| O=c1[nH]cc(-c2cc([C@H]3C[C@@H]3c3cncnc3)c3ncc(F)n3n2)c(=O)[nH]1 (racemic) [Example 179, 5-(3-fluoro-8-((1S,2S)-2-(pyrimidin-5-yl)cyclopropyl)imidazo[1,2-b]pyridazin-6-yl)pyrimidine-2,4(1H,3H)-dione] | 16.7 nM |
| O=c1[nH]cc(-c2cc([C@H]3C[C@@H]3c3cccnc3)c3ncc(F)n3n2)c(=O)[nH]1 (racemic) [Example 180, 5-(3-fluoro-8-((1S,2S)-2-(pyridin-3-yl)cyclopropyl)imidazo[1,2-b]pyridazin-6-yl)pyrimidine-2,4(1H,3H)-dione] | 2.2 nM |
| O=c1[nH]cc(-c2cc([C@H]3C[C@@H]3c3ccncc3)c3ncc(F)n3n2)c(=O)[nH]1 (racemic) [Example 181, 5-(3-fluoro-8-((1S,2S)-2-(pyridin-4-yl)cyclopropyl)imidazo[1,2-b]pyridazin-6-yl)pyrimidine-2,4(1H,3H)-dione] | 2.42 nM |
| O=c1[nH]cc(-c2cc([C@H]3C[C@@H]3c3ccc(C(F)(F)F)cc3)c3ncc(F)n3n2)c(=O)[nH]1 (racemic) [Example 183, 5-(3-fluoro-8-((1S,2S)-2-(4-(trifluoromethyl)phenyl)cyclopropyl)imidazo[1,2-b]pyridazin-6-yl)pyrimidine-2,4(1H,3H)-dione] | 2.52 nM |
| Cn1cc([C@H]2C[C@@H]2c2cc(-c3c[nH]c(=O)[nH]c3=O)nn3ccnc23)ccc1=O (racemic) [Example 184, 5-(8-((1S,2S)-2-(1-methyl-6-oxo-1,6-dihydropyridin-3-yl)cyclopropyl)imidazo[1,2-b]pyridazin-6-yl)pyrimidine-2,4(1H,3H)-dione] | 2.86 nM |

Now those with a lower IC50, led by results:

| IC50 | Structure (SMILES) |
| --- | --- |
| 0.89 nM | O=c1[nH]cc(-c2cc([C@H]3C[C@@H]3c3ccc4c(F)nn(CC(F)(F)F)c4c3)c3nccn3n2)c(=O)[nH]1 (racemic) [Example 117, 5-(8-((1S,2S)-2-(3-fluoro-1-(2,2,2-trifluoroethyl)-1H-indazol-6-yl)cyclopropyl)imidazo[1,2-b]pyridazin-6-yl)pyrimidine-2,4(1H,3H)-dione] |
| 0.79 nM | O=c1[nH]cc(-c2cc([C@H]3C[C@@H]3c3ccc4cnn(CC5CC5(F)F)c4c3)c3nccn3n2)c(=O)[nH]1 (mixture of isomers) [Example 118, 5-(8-((1S,2S)-2-(1-((2,2-difluorocyclopropyl)methyl)-1H-indazol-6-yl)cyclopropyl)imidazo[1,2-b]pyridazin-6-yl)pyrimidine-2,4(1H,3H)-dione] |
| 1.13 nM | O=c1[nH]cc(-c2cc([C@H]3C[C@@H]3c3cc4c(ccn4CC(F)(F)F)cn3)c3nccn3n2)c(=O)[nH]1 (racemic) [Example 127, 5-(8-((1S,2S)-2-(1-(2,2,2-trifluoroethyl)-1H-pyrrolo[3,2-c]pyridin-6-yl)cyclopropyl)imidazo[1,2-b]pyridazin-6-yl)pyrimidine-2,4(1H,3H)-dione] |
| 1.84 nM | O=c1[nH]cc(-c2cc([C@H]3C[C@@H]3c3ccc4c(C5CC5)nn(CC(F)(F)F)c4c3)c3nccn3n2)c(=O)[nH]1 (racemic) [Example 128, 5-(8-((1S,2S)-2-(3-cyclopropyl-1-(2,2,2-trifluoroethyl)-1H-indazol-6-yl)cyclopropyl)imidazo[1,2-b]pyridazin-6-yl)pyrimidine-2,4(1H,3H)-dione] |
| 1.01 nM | O=c1[nH]cc(-c2cc([C@H]3C[C@@H]3c3ccc4cnn(CC5CC5)c4c3)c3nccn3n2)c(=O)[nH]1 (racemic) [Example 130, 5-(8-((1S,2S)-2-(1-(cyclopropylmethyl)-1H-indazol-6-yl)cyclopropyl)imidazo[1,2-b]pyridazin-6-yl)pyrimidine-2,4(1H,3H)-dione] |
| 1.36 nM | N#Cc1ccc([C@H]2C[C@@H]2c2cc(-c3c[nH]c(=O)[nH]c3=O)nn3c(F)cnc23)nc1 (racemic) [Example 151, 6-((1S,2S)-2-(6-(2,4-dioxo-1,2,3,4-tetrahydropyrimidin-5-yl)-3-fluoroimidazo[1,2-b]pyridazin-8-yl)cyclopropyl)nicotinonitrile] |
| 1.56 nM | O=c1[nH]cc(-c2cc([C@H]3C[C@@H]3c3ccc4cccnc4c3)c3nccn3n2)c(=O)[nH]1 (racemic) [Example 154, 5-(8-((1S,2S)-2-(quinolin-7-yl)cyclopropyl)imidazo[1,2-b]pyridazin-6-yl)pyrimidine-2,4(1H,3H)-dione] |
| 2.04 nM | N#Cc1ccc([C@H]2C[C@@H]2c2cc(-c3c[nH]c(=O)[nH]c3=O)nn3ccnc23)nc1 (racemic) [Example 155, 6-((1S,2S)-2-(6-(2,4-dioxo-1,2,3,4-tetrahydropyrimidin-5-yl)imidazo[1,2-b]pyridazin-8-yl)cyclopropyl)nicotinonitrile] |
| 0.95 nM | O=c1[nH]cc(-c2cc([C@H]3C[C@@H]3c3ccc4cnccc4c3)c3nccn3n2)c(=O)[nH]1 (racemic) [Example 156, 5-(8-((1S,2S)-2-(isoquinolin-6-yl)cyclopropyl)imidazo[1,2-b]pyridazin-6-yl)pyrimidine-2,4(1H,3H)-dione] |
| 1.06 nM | O=c1[nH]cc(-c2cc([C@H]3C[C@@H]3c3ccc4ncccc4c3)c3nccn3n2)c(=O)[nH]1 (racemic) [Example 157, 5-(8-((1S,2S)-2-(quinolin-6-yl)cyclopropyl)imidazo[1,2-b]pyridazin-6-yl)pyrimidine-2,4(1H,3H)-dione] |
| 1.24 nM | O=c1[nH]cc(-c2cc([C@H]3C[C@@H]3c3ccc(Cl)cc3)c3ncc(F)n3n2)c(=O)[nH]1 (racemic) [Example 182, 5-(8-((1S,2S)-2-(4-chlorophenyl)cyclopropyl)-3-fluoroimidazo[1,2-b]pyridazin-6-yl)pyrimidine-2,4(1H,3H)-dione] |
| 1.24 nM | CC1(C)C(=O)N(CC(F)(F)F)c2cc([C@H]3C[C@@H]3c3cc(-c4c[nH]c(=O)[nH]c4=O)nn4c(Cl)cnc34)ccc21 (racemic) [Example 212, 5-[3-chloro-8-[(1S,2S)-2-[3,3-dimethyl-2-oxo-1-(2,2,2-trifluoroethyl)indolin-6-yl]cyclopropyl]imidazo[1,2-b]pyridazin-6-yl]-1H-pyrimidine-2,4-dione] |
| 0.92 nM | O=c1[nH]cc(-c2cc([C@H]3C[C@@H]3c3ccc4c(F)nn(CC(F)(F)F)c4c3)c3ncc(Cl)n3n2)c(=O)[nH]1 (racemic) [Example 213, 5-[3-chloro-8-[(1S,2S)-2-[3-fluoro-1-(2,2,2-trifluoroethyl)indazol-6-yl]cyclopropyl]imidazo[1,2-b]pyridazin-6-yl]-1H-pyrimidine-2,4-dione] |
